For one data set, the target named is PIM3 (Homo sapiens, UniProt Q86V86). Kind of data set: PIM3 kinase inhibition. It counts as biochemical. The source says:
Table 1 Best DYRK1A inhibitors. | column: PIM3 IC50

Details of data set [1]: method as in PMID 36986543. To be noted: mouse, plasma, cited from earlier work.
In a further data set the target is DYRK1A (Homo sapiens, UniProt Q13627). The data set is described as follows: DYRK1A kinase inhibition. It is filed as biochemical.
The next data set concerns the target PIM1 (Homo sapiens, UniProt P11309). The data set is described as follows: PIM1 kinase inhibition. It is filed as biochemical.
The next data set concerns the target PIM2 (Homo sapiens, UniProt Q9P1W9). Kind of data set: PIM2 kinase inhibition. It counts as biochemical. The text has this: Table 1 Best DYRK1A inhibitors. | column: PIM2 IC50
For data set [2], the system named is bleomycin-induced pulmonary fibrosis. Kind of data set: Preventive bleomycin-induced IPF model (treatment from Day 0). It is filed as in vivo, C57BL/6 mice. To be noted: for body weight: Day 14 to 21 vs BLM model group, ABI compounds 60 mg/kg QD intranasal, pirfenidone 100 mg/kg oral thrice daily; for alveolitis and PF degrees (H&E and Masson staining): relative to bleomycin group; for hydroxyproline content in lung tissues: 21 days. The source says:
Consequently, we opted for intranasal delivery in our first IPF animal model, employing a validated BLM mouse model. […] The experiment considered the day of bleomycin injection as Day 0. […] The experiment was completed after 21 days.
In the preventive model, male C57BL/6 mice, aged 8–10 weeks, were used to simulate the early intervention scenario where treatment begins immediately following the induction of lung injury. […] On day 0, pulmonary fibrosis was induced by administering a single intratracheal infusion of bleomycin at a dose of 3 U/kg body weight, dissolved in 50 μL of sterile saline. Treatment with the test compounds commenced immediately after bleomycin administration and continued daily for 21 days. Body weight, survival rate, and clinical signs were monitored throughout the study.
At the end of the study period, the mice were sacrificed, and their lungs were harvested for histological and biochemical analyses. Lung tissues were fixed in 10% formalin and embedded in paraffin for histological examination using hematoxylin and eosin (H&E) staining to assess tissue morphology, and Masson’s trichrome staining to evaluate collagen deposition. Additionally, lung hydroxyproline content, a marker of collagen accumulation, was quantified using a colorimetric assay. Inflammatory cell infiltration was assessed by counting lymphocytes and neutrophils in bronchoalveolar lavage fluid (BALF).

For data set [3] the test system is unchanged. The data set is described as follows: Therapeutic bleomycin-induced IPF model (treatment from Day 7). It counts as in vivo, C57BL/6 mice. The source says:
In this study, drug treatment commenced 7 days post-induction of pulmonary fibrosis using BLM, employing a therapeutic model.
Pulmonary fibrosis was induced by a single intratracheal infusion of bleomycin at a dose of 3 U/kg body weight. Seven days post-bleomycin administration, when fibrosis was established, treatment with the test compounds commenced and continued daily for an additional 21 days.
Throughout the treatment period, body weight, survival rate, and clinical signs were monitored. At the study’s conclusion, mice were sacrificed, and their lungs were harvested for comprehensive histological and biochemical analyses. Lung tissues were processed for H&E and Masson’s trichrome staining to evaluate fibrosis and collagen deposition. Lung hydroxyproline content was measured to quantify collagen accumulation. Inflammatory cell infiltration in BALF was assessed by counting lymphocytes and neutrophils.

Data set [4] in a line: Pharmacokinetics and lung-tissue distribution after single IV, IN or PO dose. It counts as in vivo, C57BL/6 mice. The procedure:
Plasma concentrations were measured using LC-MS/MS, and PK parameters were calculated with WinNonlin. […] The formulation is based on the solubilizer and penetration enhancer (2-hydroxypropyl)-β-cyclodextrin (HP-β-CD), PEG-400, and water.
They were given a commercial mice chow and water ad libitum. The experiments started after acclimation for at least 1 week. Dosing solutions were made fresh. Fasted mice were administered the test drug by oral (PO), intranasal (IN), and intravenous (IV) routes. […] […] […] Blood was collected into K2EDTA microtubes, kept on ice all the time and centrifuged within 30 min of collection. Blood samples in EDTA vacuum tubes were centrifuged at 4 °C at 15,000× g for 4 min; ~250 µL of plasma was collected into polyethylene tubes containing 50 µL of the ascorbic acid (AA)/TCEP stabilizing solution (20 mM AA and 13 mM TCEP in 50 mM K2HPO4 buffer. The pH of the solution was adjusted to 6.5 using 2 M NaOH). After collection, the plasma samples were immediately snap-frozen in isopropanol/carbon-dioxide dry ice and stored at −80 °C until analysis.
Test catechin was extracted from the above-collected plasma through 3 successive additions of 350 µL of acetonitrile. The plasma and solvent mixture were vortex-mixed for 2 min then snap-frozen with isopropanol/carbon-dioxide dry ice and the extraction solvent was removed. The solvent fractions were pooled into a polyethylene tube kept on ice. The combined fractions were evaporated under a gentle stream of nitrogen at ambient temperature. The residue obtained after evaporation was reconstituted in 200 µL of 75 mM citric acid/25 mM ammonium acetate: acetonitrile (75:25, by vol), vortexed vigorously for 5 min, and 20 µL of the resulting solution was injected into the HPLC column. Lung tissue was collected and treated immediately to avoid product degradation. Within 5 min of extraction, about ~0.4 g of the tissue was homogenized with 1 mL of ice-cold 0.4 M sodium phosphate buffer containing 6 mg of ascorbic acid and 0.5 mg of Na2EDTA (final pH of 6.5). After centrifugation at 4 °C at 15,000× g for 4 min, the supernatant was collected into polyethylene tubes containing 50 µL of the AA/TCEP stabilizing solution (20 mM AA and 13 mM TCEP in 50 mM K2HPO4 buffer. The pH of the solution was adjusted to 6.5 using 2 M NaOH), immediately snap-frozen in isopropanol/carbon-dioxide dry ice and stored at −80 °C until analysis. Extraction was performed as described above for plasma.

The mark [5] stands for this setting: vs BLM group, 60 mg/kg QD intranasal.
The mark [6] stands for this setting: intranasal 50 mg/kg QD, from day 7 post-BLM.
Setting [7] is: oral 100 mg/kg QD, from day 7 post-BLM.
[8] abbreviates: tissues from Group 4, vs BLM group.
[9] abbreviates: C57BL/6, inhaled or intranasal, mouse, IN (60 mg/kg), lung.
Where [10] appears, read: vs BLM group, 60 mg/kg QD intranasal, p < 0.05.
Setting [11] is: oral 100 mg/kg once daily, from day 7 post-BLM.
Where [12] appears, read: C57BL/6, mouse, IV (10 mg/kg), plasma.

Like-named read-outs stand apart in the source and are kept apart here.

Chain of PIM1 (P11309 whole entry, species assumed): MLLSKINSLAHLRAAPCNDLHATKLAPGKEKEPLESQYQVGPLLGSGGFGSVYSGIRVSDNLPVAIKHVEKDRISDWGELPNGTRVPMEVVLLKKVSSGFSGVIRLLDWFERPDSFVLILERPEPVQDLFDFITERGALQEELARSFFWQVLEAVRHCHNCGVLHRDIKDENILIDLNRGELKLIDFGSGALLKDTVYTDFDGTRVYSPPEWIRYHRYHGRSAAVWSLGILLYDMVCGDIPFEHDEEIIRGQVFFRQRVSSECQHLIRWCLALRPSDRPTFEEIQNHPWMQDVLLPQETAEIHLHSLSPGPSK
Chain of PIM2 (Q9P1W9 whole entry, species assumed): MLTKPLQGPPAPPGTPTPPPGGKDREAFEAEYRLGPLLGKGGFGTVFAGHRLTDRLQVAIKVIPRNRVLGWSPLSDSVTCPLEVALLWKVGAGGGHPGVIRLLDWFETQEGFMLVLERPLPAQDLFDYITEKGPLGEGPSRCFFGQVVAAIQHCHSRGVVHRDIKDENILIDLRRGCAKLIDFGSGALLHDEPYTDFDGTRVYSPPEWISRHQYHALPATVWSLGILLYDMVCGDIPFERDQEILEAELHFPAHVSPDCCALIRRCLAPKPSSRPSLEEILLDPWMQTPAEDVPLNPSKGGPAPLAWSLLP

Turning to `O=C(O[C@@H]1Cc2c(O)cc(O)cc2O[C@H]1c1cc(O)c(O)c(O)c1)c1c(F)c(O)c(O)c(O)c1F` [ABI-154], the IC50 (in general, the concentration needed to halve the response being measured) against PIM3 was 6000 nM; on DYRK1A (read-out: DYRK1A IC50), 28 nM; against PIM1 it was 722 nM; against PIM2, 1080 nM. Moreover, the Tlast in data set [1] (PO (100 mg/kg)) is given as 24 h. Moreover, the body weight entry in data set [2] is reported as “no body weight gain effect”. Besides, the “alveolitis and PF degrees (H&E and Masson staining)” value in data set [2] (60 mg/kg QD intranasal) is “decrease in the alveolitis and PF degrees”. Also, the “hydroxyproline content in lung tissues” value in data set [2] (setting [5]) was “significantly decreased”.

Take `COc1cc(C(=O)O[C@@H]2Cc3c(O)cc(O)cc3O[C@H]2c2cc(O)c(O)c(O)c2)c(F)c(O)c1O` [ABI-171]: the IC50 on PIM3 was found to be 813 nM. The Tlast in data set [1] (IN (60 mg/kg)) is 24 h. Further, in data set [1] (IV (5 mg/kg)), the “CL(IV)” value is listed as 60 mL/min/kg and the “Vz(IV)” value was 17 L/kg. Also, in data set [1] (PO (100 mg/kg)), the “CL/F (PO)” value is reported as 101 mL/min/kg; the “F (absolute oral bioavailability, PO/IV)” value is 16%; the Tlast is on record as 24 h; the “Vz/F (PO)” value is given as 15.6 L/kg. Also, in data set [3] (day 21 of treatment), the “BLM-induced lung collagen level” value is recorded as “significant reductions” and the “BLM-induced lung fibronectin level” value is listed as “significant reductions”. In data set [3] (setting [6]), the body weight result is recorded as “good recovery in body weight” and the survival result is listed as “complete survival”. Further, the “BLM-induced lung injuries, Masson's and H&E scores” value in data set [3] (intranasal 10 and 50 mg/kg, oral 100 mg/kg QD) is recorded as “improvements”. Moreover, in data set [3] (setting [7]), the body weight result is recorded as “good recovery in body weight” and the survival entry is “complete survival”. The “E-cadherin levels in lung” value in data set [3] (oral treatment, tissues from Group 4) is “significantly elevated”. In data set [3] (setting [8]), the “PIM1 level in lung” value was “significantly reduced”, the “Smad3 (p-Smad3) levels in lung” value was “significantly reduces”, the “Snail expression in lung” value is on record as “reduce Snail expression” and the “αSMA level in lung” value is “downregulating”. The IC50 on DYRK1A (read-out: DYRK1A IC50) was 73 nM. Further, half-maximal inhibition on PIM1 (IC50) required 87 nM. In addition, the IC50 against PIM2 turned out to be 255 nM. Also, in data set [4] (setting [9]), the total exposure AUC(0-inf) (in general, the area under the concentration-time curve extrapolated to infinity) was 23200 ng·h/mL; the AUC(0-t) (usually exposure summed from dosing to a finite time, without extrapolation to infinity) is 23100 ng·h/mL; the Tmax (in general, the time at which the peak concentration occurs) was 4 h; the half-life (as a rule, how long it takes for the measured level to halve) is 3.93 h. In addition, the Cmax in data set [4] (C57BL/6, inhaled or intranasal, mouse, IN (60 mg/kg), lung, read-out: Cmax) was 8740 ng/g. In addition, the AUC(0-t) in data set [4] (C57BL/6, mouse, PO (100 mg/kg), lung) turned out to be 214 ng·h/mL. Moreover, in data set [4] (C57BL/6, mouse, PO (100 mg/kg), lung, read-out: Cmax), the Cmax amounted to 231 ng/g. Also, in data set [4] (IN route (60 mg/kg), total not unbound drug, read-out: theoretical cellular concentration in the lungs at Cmax), the Cmax was roughly 17.8 µM. In data set [4] (mouse, IN (60 mg/kg), lung), this compound came in with a Tlast of 24 h. In addition, the Tlast in data set [4] (mouse, PO (100 mg/kg), lung) worked out at 24 h. The body weight result in data set [2] is on record as “significant increase in body weight”. Moreover, in data set [2] (60 mg/kg QD intranasal), the “alveolitis and PF degrees (H&E and Masson staining)” value is “decrease in the alveolitis and PF degrees”. Also, the “hydroxyproline content in lung tissues” value in data set [2] (setting [5]) is given as “significantly decreased”. In data set [2] (setting [10]), the “lymphocytes (BALF)” value is reported as “significantly reduced” and the “neutrophils (BALF)” value is reported as “significantly reduced”.

For `O=C(O[C@@H]1Cc2c(O)cc(O)cc2O[C@@H]1c1cc(O)c(O)c(O)c1)c1cc(O)c(O)c(O)c1` [EGCG, Epigallocatechin gallate, reference compound], in data set [3] (setting [11]), the “activity in various assessments” value is “limited to moderate activity” and the mortality (as a rule, the share of the test organisms that died) is 50%. The same compound had a half-inhibitory concentration (IC50) at DYRK1A of 235 nM. The IC50 against PIM1 was 1360 nM. In data set [4] (C57BL/6, mouse, lung, po, 100 mg/kg, read-out: F (absolute oral bioavailability, PO/IV)), the bioavailability stood at 2%. In addition, the Vd/F in data set [4] (C57BL/6, mouse, lung, po, 100 mg/kg, read-out: Vz/F (PO)) came out at 2680 L/kg. For the same compound, in data set [4] (setting [12]), the AUC(0-inf) came out at 1830 ng·h/mL, the AUC(0-t) amounted to 1800 ng·h/mL and the half-life is 5.7 h. In addition, the Cmax in data set [4] (C57BL/6, mouse, IV (10 mg/kg), plasma, read-out: Cmax) was 4420 ng/mL. The Vd in data set [4] (C57BL/6, mouse, IV (10 mg/kg), plasma, read-out: Vz(IV)) was determined as 45.2 L/kg. For the same compound, the T1/2 in data set [4] (EGCG column, PO (100 mg/kg), head prints Lung) worked out at 5 h.

As for `Cc1ccc(=O)n(-c2ccccc2)c1` [pirfenidone, Pirfenidone, reference compound], the body weight result in data set [2] is given as “significant increase in body weight”.
